Values of other authors as cited in US8524749B2, “Controlled release compositions of tizanidine” (ALZA Corporation, priority 2007, dated 2013).

Settings: doses of 0.5-0.7 g/kg alcohol; comparison data

Compound: CCO [alcohol]
- Peak impairment in Power of Attention, decrement compared to baseline: about 150 msec
